This is an account of results in ChEMBL document CHEMBL1149753, “Two new alkaloids from Xestospongia sp., a New Caledonian sponge” (1992).

For assay [1], the system named is KB. Put plainly: Cytotoxicity against human KB cells. The assay is classed as functional. To be noted: for EC50: read-out: ED50 (the source's name).
In assay [2] the test system is L1210. Briefly: Cytotoxicity against mouse L1210 cells. Format: functional. To be noted: for EC50: read-out: ED50 (the source's name).
Assay [3] has as its system P388. Put plainly: In vivo antitumor activity against mouse P388 cells. The assay is classed as functional, organism-based.

Molecules are shown by their SMILES. ≈ marks a conversion by molar mass, not a printed value. Calls of active or inactive are those of the source. The rule behind the calls is not given here.

On to `C[C@@H]1CN2CCC[C@H]3CCCCCC[C@H]4CCN5CCC[C@@](O)(CCCCCC[C@@H]1O[C@H]32)[C@H]5O4` [XESTOSPONGIN B], for which the EC50 in assay [1] came to 2.5 µg/mL (≈ 5.24 µM); in assay [2], 2 µg/mL (≈ 4.2 µM). Also, in assay [3], the outcome was inactive.
As to `CN(C)CC1NCCc2c1[nH]c1ccccc21` (stereo unspecified), the ED50 entry in assay [1] and in assay [2] was “inactive” throughout.
Turning to `O[C@@]12CCCCCC[C@H]3CCN4CCC[C@@H](CCCCCC[C@H]5CCN(CCC1)[C@@H]2O5)[C@H]4O3` [DEMETHYLXESTOSPONGIN B], the results for the EC50 in assay [1] and in assay [2] were 2.5 µg/mL (≈ 5.4 µM) and 0.8 µg/mL (≈ 1.73 µM), respectively. For the same compound, the result in assay [3] was inactive.
Taken in the same sequence, the figures for `O[C@@]12CCCCCC[C@H]3CCN4CCC[C@H](CCCCCC[C@H]5CCN(CCC1)[C@@H]2O5)[C@H]4O3` [XESTOSPONGIN D] were 2 µg/mL (≈ 4.32 µM), 0.2 µg/mL (≈ 0.432 µM) and “inactive”.
